Measured values: PubChem BioAssay AID264 (DTP/NCI, 2004)
Values joined by “and” are separate entries in the source; they are usually repeats but may differ in a detail not shown here. Identical values can stand only once. Inconclusive results are not listed.

Test system: nude mice, LX-1 lung xenograft intrarenal, tumor weight T/C
Experiment: NCI In Vivo Anticancer Drug Screen. Data for tumor model Human Lung LX-1 Xenograft (intrarenal inoculation) in NU/NU Swiss (nude) mice
Conditions: endpoint: mean tumor weight change, higher = larger tumour
Method: The antitumor activity of compounds was measured in mice bearing transplantable tumors. Survival or tumor size were measured and the results are expressed as the measurement made in the treated group (T) divided by the measurement made in the vehicle treated control group (C). The tumor model used in this assay is Human Lung LX-1 Xenograft (intrarenal inoculation) in NU/NU Swiss (nude) mice

[1] = dose: 200.0 mg/kg/injection, schedule: Q01DX010 (sc), vehicle: saline with Tween-80
[2] = dose: 800.0 mg/kg/injection, schedule: Q01DX010 (sc), vehicle: saline with Tween-80
[3] = dose: 18.75 mg/kg/injection, schedule: Q04DX003 (sc), vehicle: saline
[4] = dose: 25.0 mg/kg/injection, schedule: Q04DX003 (sc), vehicle: saline with Tween-80
[5] = dose: 50.0 mg/kg/injection, schedule: Q04DX003 (sc), vehicle: saline with Tween-80
[6] = dose: 100.0 mg/kg/injection, schedule: Q04DX003 (sc), vehicle: saline with Tween-80
[7] = dose: 200.0 mg/kg/injection, schedule: Q04DX003 (sc), vehicle: saline with Tween-80

CCO/C=C1\SC(=S)N(c2ccccc2C)C1=O
T/C (dose: 100.0 mg/kg/injection, schedule: Q01DX010 (sc), vehicle: saline with Tween-80): 26 % of control | T/C [1]: 64 % of control | T/C (dose: 400.0 mg/kg/injection, schedule: Q01DX010 (sc), vehicle: saline with Tween-80): 76 % of control | T/C [2]: 89 % of control

[I][Hg][CH2]C1COC([CH2][Hg][I])CO1 (centres undefined)
T/C (dose: 150.0 mg/kg/injection, schedule: Q04DX003 (sc), vehicle: saline with Tween-80): 105 % of control | T/C (dose: 300.0 mg/kg/injection, schedule: Q04DX003 (sc), vehicle: saline with Tween-80): 97 % of control | T/C (dose: 600.0 mg/kg/injection, schedule: Q04DX003 (sc), vehicle: saline with Tween-80): 80 % of control | T/C (dose: 1200.0 mg/kg/injection, schedule: Q04DX003 (sc), vehicle: saline with Tween-80): 97 % of control

Cc1ncc(CNC(=O)N(CCCl)N=O)c(N)n1
T/C [3]: 61 % of control

C1OC1CN1CCN(CC2CO2)CC1 (centres undefined)
T/C (dose: 16.0 mg/kg/injection, schedule: Q01DX010 (sc), vehicle: saline): 27 % of control

CCCCNC(C)[C@]1(O)Cc2c(O)c3c(c(O)c2[C@@H](OC2CC(N)C(O)C(C)O2)C1)C(=O)c1c(OC)cccc1C3=O (some centres undefined)
T/C (dose: 6.25 mg/kg/injection, schedule: Q01DX010 (sc), vehicle: saline): 69 % of control | T/C (dose: 12.5 mg/kg/injection, schedule: Q01DX010 (sc), vehicle: saline): 68 % of control

F[B-](F)(F)F
T/C (dose: 300.0 mg/kg/injection, schedule: Q04DX003 (sc), vehicle: gum acacia): 103 % of control | T/C (dose: 600.0 mg/kg/injection, schedule: Q04DX003 (sc), vehicle: gum acacia): 101 % of control | T/C (dose: 1200.0 mg/kg/injection, schedule: Q04DX003 (sc), vehicle: gum acacia): 84 % of control

CCOC(=O)Nc1cc2c(c(N)n1)N=C(c1ccccc1)CN2
T/C (dose: 3.12 mg/kg/injection, schedule: Q04DX003 (sc), vehicle: saline with Tween-80): 68 % of control | T/C (dose: 6.25 mg/kg/injection, schedule: Q04DX003 (sc), vehicle: saline with Tween-80): 82 % of control and 96 % of control | T/C (dose: 12.5 mg/kg/injection, schedule: Q04DX003 (sc), vehicle: saline with Tween-80): 73 % of control | T/C [4]: 30 % of control and 54 % of control

N#C[C@H](OC1OC(COC2OC(CO)C(O)C(O)C2O)C(O)C(O)C1O)c1ccccc1 (some centres undefined)
T/C (dose: 900.0 mg/kg/injection, schedule: Q04DX003 (sc), vehicle: suspension in saline): 82 % of control | T/C (dose: 1800.0 mg/kg/injection, schedule: Q04DX003 (sc), vehicle: suspension in saline): 123 % of control

O=Cc1ccc(C(Cl)(Cl)Cl)cc1
T/C (dose: 50.0 mg/kg/injection, schedule: Q01DX010 (sc), vehicle: saline with Tween-80): 176 % of control | T/C [1]: 179 % of control | T/C [2]: 77 % of control

C1OCN2CSCC12 (centres undefined)
T/C [5]: 76 % of control | T/C [6]: 103 % of control | T/C [7]: 71 % of control | T/C (dose: 400.0 mg/kg/injection, schedule: Q04DX003 (sc), vehicle: saline with Tween-80): 63 % of control

[CH3][Sn]([CH3])([Cl])[S]CCN
T/C [3]: 62 % of control | T/C (dose: 37.5 mg/kg/injection, schedule: Q04DX003 (sc), vehicle: saline): 95 % of control | T/C (dose: 75.0 mg/kg/injection, schedule: Q04DX003 (sc), vehicle: saline): 82 % of control

COc1cc(OC)c(NC(=O)ON2C(=O)c3ccccc3C2=O)cc1Cl
T/C [4]: 93 % of control | T/C [5]: 79 % of control | T/C [6]: 68 % of control | T/C [7]: 92 % of control

c1cc[c]([Sn]([NH]c2ncnc3[nH]cnc23)([NH]c2ncnc3[nH]cnc23)[c]2ccccc2)cc1
T/C (dose: 300.0 mg/kg/injection, schedule: Q04DX003 (sc), vehicle: suspension in saline): 85 % of control | T/C (dose: 600.0 mg/kg/injection, schedule: Q04DX003 (sc), vehicle: suspension in saline): 84 % of control | T/C (dose: 1200.0 mg/kg/injection, schedule: Q04DX003 (sc), vehicle: suspension in saline): 82 % of control | T/C (dose: 2400.0 mg/kg/injection, schedule: Q04DX003 (sc), vehicle: suspension in saline): 64 % of control
